SMILES strings stand for the structures.

In the test the test system is HT-1080 cells. The test is described as follows: HT-1080 cell viability assay (ferroptosis induced by RSL3, Cell Titer-Glo). It counts as cell-based. The settings on record: Homo sapiens, HT-1080, 20 h, ferroptosis inducer RSL3, 20 hours, ferroptosis inhibitory activity, Table 2. Summed up:
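EC50 fitted by sigmoidal dose-response regression on luminescent viability data normalized to untreated cells. Compounds ran as a 10-point, 3-fold series from 1.1 μM alongside RSL3 for 20 hours, after overnight seeding.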
A general note: In ATP-based viability assays light output follows the ATP content of the culture.
For `CC1CN(c2ccc(NC3C4CC5CC3CC(CN)(C5)C4)cc2)CC(C)O1` (stereo not shown) [Compound 426, 5-(aminomethyl)-N-(4-(2,6-dimethylmorpholino)phenyl)adamantan-2-amine], the EC50 lay within 0.0001 to 0.1 µM.

On to `NNC(=O)C1CC2(CC(Nc3cnc(N4CCC(C(F)(F)F)CC4)nc3)C2)C1` (stereo not shown) [Compound 427, 6-((2-(4-(trifluoromethyl)piperidin-1-yl)pyrimidin-5-yl)amino)spiro[3.3]heptane-2-carbohydrazide], for which the EC50 is 0.0001 to 0.1 µM.

Take `O=C(NO)C1CC2(CC(Nc3cnc(N4CCC(C(F)(F)F)CC4)nc3)C2)C1` (stereo not shown) [Compound 428, N-hydroxy-6-((2-(4-(trifluoromethyl)piperidin-1-yl)pyrimidin-5-yl)amino)spiro[3.3]heptane-2-carboxamide]: the EC50 is 0.0001 to 0.1 µM.

`CC(C)C1CCN(c2ncc(NCC[C@H]3CC[C@H](NC(N)=O)CC3)cn2)CC1` [Compound 429, 1-((1r,4r)-4-(2-((2-(4-isopropylpiperidin-1-yl)pyrimidin-5-yl)amino)ethyl)cyclohexyl)urea] came in with an EC50 of 0.0001 to 0.1 µM.

`CC1CN(c2ccc(NC[C@H]3CC[C@H](N)CC3)cc2F)CC(C)O1` (stereo partly shown) [Compound 430, N-(((1r,4r)-4-aminocyclohexyl)methyl)-4-(2,6-dimethylmorpholino)-3-fluoroaniline] yielded an EC50 of 0.0001 to 0.1 µM.

`CC1CN(c2ccc(NC[C@H]3CC[C@H](N)CC3)c(F)c2)CC(C)O1` (stereo partly shown) [Compound 431, N-(((1r,4r)-4-aminocyclohexyl)methyl)-4-(2,6-dimethylmorpholino)-2-fluoroaniline] displayed an EC50 of 0.0001 to 0.1 µM.

For the compound `Cc1cc(N2CC(C)OC(C)C2)c(F)cc1NC[C@H]1CC[C@H](N)CC1` (stereo partly shown) [Compound 432, N-(((1r,4r)-4-aminocyclohexyl)methyl)-4-(2,6-dimethylmorpholino)-5-fluoro-2-methylaniline], the EC50 lay within 0.0001 to 0.1 µM.

Compound `Cc1c(NC[C@H]2CC[C@H](N)CC2)ccc(N2CC(C)OC(C)C2)c1F` (stereo partly shown) [Compound 433, N-(((1r,4r)-4-aminocyclohexyl)methyl)-4-(2,6-dimethylmorpholino)-3-fluoro-2-methylaniline] yielded an EC50 of 0.0001 to 0.1 µM.

As to `CC(C)C1CCN(c2ncc(NC34CC(N)(C3)C4)cn2)CC1` [Compound 434, N1-(2-(4-isopropylpiperidin-1-yl)pyrimidin-5-yl)bicyclo[1.1.1]pentane-1,3-diamine], the EC50 was 1 to 10 µM.

Compound `Cc1cc(N2CCC(C(F)(F)F)CC2)c(F)cc1NC1CCC(C(N)=O)CC1` (stereo not shown) [Compound 435, 4-((5-fluoro-2-methyl-4-(4-(trifluoromethyl)piperidin-1-yl)phenyl)amino)cyclohexane-1-carboxamide] showed an EC50 of 0.0001 to 0.1 µM.

`CCN(CC)c1ccc(NC[C@H]2CC[C@H](N)CC2)cc1` [Compound 436]: the EC50 was in the range of 0.0001 to 0.1 µM.

The compound `Cc1cc(NC2CC(C(N)=O)C2)ccc1N1CCC(C(F)(F)F)CC1` (stereo not shown) [Compound 437, 3-((3-methyl-4-(4-(trifluoromethyl)piperidin-1-yl)phenyl)amino)cyclobutane-1-carboxamide] came in with an EC50 of 0.0001 to 0.1 µM.

As for `CC1CN(c2ccc(NC[C@H]3CC[C@H](N)CC3)cc2Cl)CC(C)O1` (stereo partly shown) [Compound 438, N-(((1r,4r)-4-aminocyclohexyl)methyl)-3-chloro-4-(2,6-dimethylmorpholino)aniline], the EC50 was 0.0001 to 0.1 µM.

`CC1CN(c2c(F)cc(NC[C@H]3CC[C@H](N)CC3)cc2F)CC(C)O1` (stereo partly shown) [Compound 439, N-(((1r,4r)-4-aminocyclohexyl)methyl)-4-(2,6-dimethylmorpholino)-3,5-difluoroaniline] showed an EC50 of 0.1 to 1 µM.

The compound `CC1CN(c2ccc(NC3CCCCC3N)cc2)CC(C)O1` (stereo not shown) [Compound 440, N1-(4-(2,6-dimethylmorpholino)phenyl)cyclohexane-1,2-diamine] had an EC50 of 0.1 to 1 µM.

Compound `CC1CN(c2ccc(NC3CCCCC3N)c(F)c2)CC(C)O1` (stereo not shown) [Compound 441, N1-(4-(2,6-dimethylmorpholino)-2-fluorophenyl)cyclohexane-1,2-diamine] yielded an EC50 of 0.1 to 1 µM.

For the compound `Cc1cc(N2CC(C)OC(C)C2)ccc1NC1CCCCC1N` (stereo not shown) [Compound 442, N1-(4-(2,6-dimethylmorpholino)-2-methylphenyl)cyclohexane-1,2-diamine], the EC50 lay within 0.1 to 1 µM.

With `Cc1nc(N2CC(C)OC(C)C2)ccc1NC1CCC(N)CC1` (stereo not shown) [Compound 443, N1-(6-(2,6-dimethylmorpholino)-2-methylpyridin-3-yl)cyclohexane-1,4-diamine], the EC50 was 0.1 to 1 µM.

The compound `N[C@@H]1CCC[C@H]1Nc1ccc(N2CCC(C(F)(F)F)CC2)cc1` [Compound 444, (1R,2R)-N1-(4-(4-(trifluoromethyl)piperidin-1-yl)phenyl)cyclopentane-1,2-diamine] came in with an EC50 of 0.0001 to 0.1 µM.

For `CC1(C)CN(c2ccc(NC[C@H]3CC[C@H](N)CC3)cc2)CC(C)(C)O1` [Compound 445, N-(((1r,4r)-4-aminocyclohexyl)methyl)-4-(2,2,6,6-tetramethylmorpholino)aniline], the EC50 was 0.0001 to 0.1 µM.

`Cc1cc(N2CCC(C(F)(F)F)CC2)ccc1NCCCC[C@H]1CC[C@H](N)CC1` [Compound 447, N-(4-((1r,4s)-4-aminocyclohexyl)butyl)-2-methyl-4-(4-(trifluoromethyl)piperidin-1-yl)aniline] had an EC50 of 0.0001 to 0.1 µM.

On to `CC(C)C1CCN(c2ncc(NC[C@H]3C[C@H](N)C3)cn2)CC1` [Compound 448, N-(((1r,3r)-3-aminocyclobutyl)methyl)-2-(4-isopropylpiperidin-1-yl)pyrimidin-5-amine], for which the EC50 was 0.0001 to 0.1 µM.

The compound `NC1CCC(CNc2ccc(N3CCS(=O)(=O)CC3)cc2)CC1` (stereo not shown) [Compound 449, 4-(4-(((4-aminocyclohexyl)methyl)amino)phenyl) thiomorpholine 1,1-dioxide] registered an EC50 of 1 to 10 µM.

The compound `CC1CN(c2ccc(NC3CCC(N)CC3)cc2)CC(C)O1` (stereo not shown) [Compound 450, N1-(4-(2,6-dimethylmorpholino)phenyl)cyclohexane-1,4-diamine] displayed an EC50 of 0.1 to 1 µM.

`Cc1cc(NC[C@H]2CC[C@H](N)CC2)cc(C)c1N1CC(C)OC(C)C1` (stereo partly shown) [Compound 451, (((1r,4r)-4-aminocyclohexyl)methyl)-4-(2,6-dimethylmorpholino)-3,5-dimethylaniline]: the concentration giving a half-maximal response (EC50) lay within 0.0001 to 0.1 µM.

For the compound `Cc1c(NC[C@H]2CC[C@H](N)CC2)ccc(N2CC(C)OC(C)C2)c1C` (stereo partly shown) [Compound 452, N-(((1r,4r)-4-aminocyclohexyl)methyl)-4-(2,6-dimethylmorpholino)-2,3-dimethylaniline], the EC50 was 0.0001 to 0.1 µM.

`Cc1cc(N2CC(C)OC(C)C2)c(C)cc1NC[C@H]1CC[C@H](N)CC1` (stereo partly shown) [Compound 453, N-(((1r,4r)-4-aminocyclohexyl)methyl)-4-(2,6-dimethylmorpholino)-2,5-dimethylaniline]: the EC50 is 0.0001 to 0.1 µM.

Regarding `N[C@H]1CCC[C@H]1Nc1ccc(N2CCC(C(F)(F)F)CC2)cc1` [Compound 454, (1R, 2S)-N1-(4-(4-(trifluoromethyl)piperidin-1-yl)phenyl)cyclopentane-1.2-diamine], the EC50 was in the range of 0.0001 to 0.1 µM.

In the case of `CC1CN(c2ccc(NC3CCC(N)CC3)cc2F)CC(C)O1` (stereo not shown) [Compound 456, N1-(4-(2,6-dimethylmorpholino)-3-fluorophenyl)cyclohexane-1,4-diamine], the EC50 lay in the range of 0.1 to 1 µM.

`CC1CN(c2ccc(NC3CC4(CC(N)C4)C3)cc2F)CC(C)O1` (stereo not shown) [Compound 457, N2-(4-(2,6-dimethylmorpholino)-3-fluorophenyl)spiro[3.3]heptane-2,6-diamine] came in with an EC50 of 0.1 to 1 µM.

Regarding `CC1CN(c2ccc(NC3CCC(C)(N)CC3)cc2F)CC(C)O1` (stereo not shown) [Compound 458, N1-(4-(2,6-dimethylmorpholino)-3-fluorophenyl)-4-methylcyclohexane-1,4-diamine], the half-maximal effective concentration (EC50) is 0.1 to 1 µM.

On to `COC1(C(F)(F)F)CCN(c2ccc(NC[C@H]3CC[C@H](N)CC3)cc2)CC1` [Compound 459, N-(((1r,4r)-4-aminocyclohexyl)methyl)-4-(4-methoxy-4-(trifluoromethyl)piperidin-1-yl)aniline], for which the EC50 lay in the range of 0.0001 to 0.1 µM.

Take `CC1CN(c2ccc(NC3C[C@H]4CC(N)C[C@H]4C3)cc2F)CC(C)O1` (stereo partly drawn) [Compound 460, (3aR, 6aS)-N2-(4-(2,6-dimethylmorpholino)-3-fluorophenyl) octahydropentalene-2,5-diamine]: the EC50 was 0.0001 to 0.1 µM.

Turning to `CC1CN(c2ccc(NC3CC4(CC(N)C4)C3)c(F)c2)CC(C)O1` (stereo not shown) [Compound 461, N2-(4-(2,6-dimethylmorpholino)-2-fluorophenyl)spiro[3.3]heptane-2,6-diamine], the EC50 lay within 0.0001 to 0.1 µM.

With `CC1CN(c2ccc(NC3CC(N)C3)c(F)c2)CC(C)O1` (stereo not shown) [Compound 462, N1-(4-(2,6-dimethylmorpholino)-2-fluorophenyl)cyclobutane-1,3-diamine], the EC50 lay in the range of 1 to 10 µM.

With `Cc1cc(N2CC(C)OC(C)C2)ccc1NC1CC2(CC(N)C2)C1` (stereo not shown) [Compound 463, N2-(4-(2,6-dimethylmorpholino)-2-methylphenyl)spiro[3.3]heptane-2,6-diamine], the EC50 lay in the range of 0.0001 to 0.1 µM.

For the compound `Cc1cc(NC[C@H]2CC[C@H](N)CC2)cc(F)c1N1CC(C)OC(C)C1` (stereo partly shown) [Compound 464, N-(((1r,4r)-4-aminocyclohexyl)methyl)-4-(2,6-dimethylmorpholino)-3-fluoro-5-methylaniline], the EC50 is 0.0001 to 0.1 µM.

`Cc1cc(N2CCCOCC2)ccc1NC1CC2(CC(N)C2)C1` (stereo not shown) [Compound 465, N2-(2-methyl-4-(1,4-oxazepan-4-yl)phenyl)spiro[3.3]heptane-2,6-diamine] had an EC50 of 0.0001 to 0.1 µM.

In turn, `CC1CN(c2ccc(NC[C@H]3CC[C@H](N)CC3)c(C(F)(F)F)c2)CC(C)O1` (stereo partly shown) [Compound 466, N-(((1r,4r)-4-aminocyclohexyl)methyl)-4-(2,6-dimethylmorpholino)-2-(trifluoromethyl)aniline] returned an EC50 of 0.1 to 1 µM.

The compound `CC1CN(c2ccc(NC[C@H]3CC[C@H](N)CC3)cc2)CC(C)N1CC(F)(F)F` (stereo partly shown) [Compound 467, N-(((1r,4r)-4-aminocyclohexyl)methyl)-4-(3,5-dimethyl-4-(2,2,2-trifluoroethyl)piperazin-1-yl)aniline] gave an EC50 of 0.0001 to 0.1 µM.

One may read the EC50 as the concentration giving half of the maximal effect. A lower EC50 goes with higher potency in that assay.

The values are drawn from patent US20240360114A1 (SIRONAX LTD., priority 2021, published 2024).
